The results in this text go back to patent publication US4920103A, “Modifications of mycinose and 3-O-demethylmycinose in tylosin-type macrolides” (Eli Lilly and Company, priority 1986, dated 1990).

In assay [1] the test system is Staphylococcus aureus V41. Put plainly: MIC, standard agar-dilution assay, S. aureus V41. It counts as cell-based. The protocol:
(§1) The MIC's in Table II were determined by standard agar-dilution assays. The MIC's in Table III were obtained using conventional broth-dilution microtiter tests.

In assay [2] the test system is Streptococcus pyogenes C203. Put plainly: MIC, standard agar-dilution assay, S. pyogenes C203. It is filed as cell-based. How it is done:
as §1

Assay [3] deals with Streptococcus pneumoniae Park I. Put plainly: MIC, standard agar-dilution assay, S. pneumoniae Park I. It counts as cell-based. As to conditions: agar-dilution. The protocol:
as §1

Assay [4] has as its system Streptococcus Group D X66. As to the kind of experiment: MIC, standard agar-dilution assay, Streptococcus Group D X66. It counts as cell-based. How it is done: as §1
The test system of assay [5] is Streptococcus Group D 2041. As to the kind of experiment: MIC, standard agar-dilution assay, Streptococcus Group D 2041. Particulars: agar-dilution. It is filed as cell-based. How it is done: as §1
In a further assay the test system is Streptococcus sp. 19F. Put plainly: MIC, broth-dilution microtiter test, Streptococcus sp. 19F. It is filed as cell-based. Particulars: broth-dilution microtiter. The protocol: as §1
The subject of assay [6] is Pasteurella multocida 17E. As to the kind of experiment: MIC, broth-dilution microtiter test, P. multocida 17E. It is filed as cell-based. As to conditions: broth-dilution microtiter, bovine isolate. How it is done:
as §1

A further assay concerns Mycoplasma synoviae 40A. As to the kind of experiment: MIC, broth-dilution microtiter test, M. synoviae 40A. It counts as cell-based. Particulars: broth-dilution microtiter. How it is done: as §1
In another assay the test system is Mycoplasma hyorhinis 29E. As to the kind of experiment: MIC, broth-dilution microtiter test, M. hyorhinis 29E. It counts as cell-based. As to conditions: broth-dilution microtiter. The protocol:
as §1

In assay [7] the test system is Mycoplasma hyopneumoniae S5972. Put plainly: MIC, broth-dilution microtiter test, M. hyopneumoniae S5972. Particulars: broth-dilution microtiter. It is filed as cell-based. How it is done: as §1
Assay [8] concerns Streptococcus pyogenes C203. Put plainly: Protection of mice experimentally infected with Streptococcus pyogenes C203. It is filed as in vivo. As to conditions: doses given 1 and 4 hours postinfection. How it is done:
The formula 1 compounds have shown in vivo antimicrobial activity against experimentally-induced infections in laboratory animals. When two doses of test compound were administered to mice experimentally infected with Streptococcus pyogenes C203, the activity observed was measured as an ED50 value [effective dose in mg/kg to protect 50% of the test animals: see Warren Wick, et al., J. Bacteriol. 81, 233-235 (1961)].
^a mg/kg × 2; doses given 1 and 4 hours postinfection

The test system of assay [9] is Staphylococcus aureus X1.1. Put plainly: MIC, standard agar-dilution assay, S. aureus X1.1. It is filed as cell-based. The protocol:
as §1

Assay [10] concerns Staphylococcus aureus X400. Put plainly: MIC, standard agar-dilution assay, S. aureus X400. It counts as cell-based. The protocol: as §1
In assay [11] the test system is Staphylococcus aureus S13E. As to the kind of experiment: MIC, standard agar-dilution assay, S. aureus S13E. It counts as cell-based. The protocol: as §1
The subject of assay [12] is Staphylococcus epidermidis EPI1. As to the kind of experiment: MIC, standard agar-dilution assay, S. epidermidis EPI1. It is filed as cell-based. How it is done:
as §1

Assay [13] deals with Staphylococcus epidermidis 222. Put plainly: MIC, standard agar-dilution assay, S. epidermidis 222. It counts as cell-based. How it is done:
as §1

The test system of assay [14] is Haemophilus influenzae C.L. As to the kind of experiment: MIC, standard agar-dilution assay, H. influenzae C.L. It counts as cell-based. The protocol: as §1
Assay [15] deals with Haemophilus influenzae 76. Put plainly: MIC, standard agar-dilution assay, H. influenzae 76. It counts as cell-based. The protocol: as §1
The next assay has as its system Escherichia coli EC14. Put plainly: MIC, standard agar-dilution assay, E. coli EC14. It counts as cell-based. Particulars: agar-dilution, read-out: MIC. How it is done: as §1
For assay [16], the system named is Klebsiella pneumoniae X68. As to the kind of experiment: MIC, standard agar-dilution assay, K. pneumoniae X68. It counts as cell-based. Particulars: agar-dilution, read-out: MIC. The protocol:
as §1

The subject of assay [17] is Pseudomonas aeruginosa X239. As to the kind of experiment: MIC, standard agar-dilution assay, P. aeruginosa X239. Particulars: agar-dilution, read-out: MIC. It counts as cell-based. How it is done:
as §1

The subject of the next assay is Staphylococcus aureus. Put plainly: MIC, broth-dilution microtiter test, S. aureus. It is filed as cell-based. How it is done:
as §1

The subject of assay [18] is Pasteurella multocida 60A. Put plainly: MIC, broth-dilution microtiter test, P. multocida 60A. It is filed as cell-based. As to conditions: broth-dilution microtiter, avian isolate, read-out: MIC. The protocol:
as §1

The test system of assay [19] is Pasteurella multocida 40G. Put plainly: MIC, broth-dilution microtiter test, P. multocida 40G. It counts as cell-based. Particulars: broth-dilution microtiter, read-out: MIC. How it is done: as §1
For assay [20], the system named is Pasteurella multocida 22A. As to the kind of experiment: MIC, broth-dilution microtiter test, P. multocida 22A. It is filed as cell-based. As to conditions: broth-dilution microtiter, read-out: MIC. How it is done: as §1
Assay [21] relates to Pasteurella multocida 68C. Put plainly: MIC, broth-dilution microtiter test, P. multocida 68C. It counts as cell-based. Particulars: broth-dilution microtiter, read-out: MIC. How it is done: as §1
Assay [22] has as its system Pasteurella hemolytica 23C. As to the kind of experiment: MIC, broth-dilution microtiter test, P. hemolytica 23C. It is filed as cell-based. Particulars: broth-dilution microtiter, read-out: MIC. How it is done: as §1
In assay [23] the test system is Pasteurella hemolytica 41D. Put plainly: MIC, broth-dilution microtiter test, P. hemolytica 41D. It is filed as cell-based. As to conditions: broth-dilution microtiter, read-out: MIC. How it is done:
as §1

Assay [24] concerns Pasteurella hemolytica 22C. As to the kind of experiment: MIC, broth-dilution microtiter test, P. hemolytica 22C. It is filed as cell-based. As to conditions: broth-dilution microtiter, read-out: MIC. The protocol: as §1
The test system of assay [25] is Bordetella bronchiseptica. As to the kind of experiment: MIC, broth-dilution microtiter test, B. bronchiseptica. Particulars: broth-dilution microtiter, read-out: MIC. It counts as cell-based. The protocol:
as §1

Assay [26] concerns Mycoplasma gallisepticum 29C. As to the kind of experiment: MIC, broth-dilution microtiter test, M. gallisepticum 29C. It counts as cell-based. As to conditions: Mycoplasmoides gallisepticum, broth-dilution microtiter, read-out: MIC. How it is done:
as §1

For assay [27], the system named is Mycoplasma gallisepticum 15E. As to the kind of experiment: MIC, broth-dilution microtiter test, M. gallisepticum 15E. It counts as cell-based. Particulars: Mycoplasmoides gallisepticum, broth-dilution microtiter, read-out: MIC. The protocol: as §1
Assay [28] has as its system Mycoplasma gallisepticum 36H. Put plainly: MIC, broth-dilution microtiter test, M. gallisepticum 36H. It counts as cell-based. Particulars: Mycoplasmoides gallisepticum, broth-dilution microtiter, read-out: MIC. The protocol:
as §1

Molecules are shown by their SMILES. ≈ marks a conversion by molar mass, not a printed value. Where “and” joins values, the source holds several entries; their conditions need not be identical. Equal values may be shown once. Read-outs that look alike come from different tables or passages of the source. Some results are limits rather than exact numbers.

Turning to `CCC1OC(=O)CC(O)C(C)C(OC2OC(C)C(O)C(N(C)C)C2O)C(CCOc2ccccc2)CC(C)C(=O)C=CC(C)=CC1COC1OC(C)C(OC)C(OC)C1OC` (centres unmarked) [Compound 13, 4"-O-Methyl-20-DH-20-O-phenyl-desmycosin], the MIC in assay [1] (agar-dilution, penicillin-resistant strain) was found to be 2 µg/mL (≈ 2.31 µM); in assay [2] (agar-dilution), 4 µg/mL (≈ 4.63 µM); in assay [3], 4 µg/mL (≈ 4.63 µM); in assay [4] (agar-dilution), 16 µg/mL (≈ 18.5 µM); in assay [5] it was 16 µg/mL (≈ 18.5 µM); in the assay on Streptococcus sp. 19F, 6.25 µg/mL (≈ 7.23 µM). In addition, the MIC entry was “-- (not active at 50 mcg/mL)” in assay [6], 6.25 µg/mL (≈ 7.23 µM) with Mycoplasma synoviae 40A, 25 µg/mL (≈ 28.9 µM) with Mycoplasma hyorhinis 29E and more than 25 µg/mL in assay [7]. For the same compound, the ED50 was 18.8 mg/kg × 2 and 22.4 mg/kg × 2 in assay [8] (oral); more than 10 mg/kg × 2 in [8] (subcutaneous).
Take `CCC1OC(=O)CC(O)C(C)C(OC2OC(C)C(O)C(N(C)C)C2O)C(CCOc2ccccc2)CC(C)C(=O)C=CC(C)=CC1COC1OC(C)C(N)C(OC)C1OC` (centres unmarked) [Compound 21, 4"-Amino-4"-deoxy-20-DH-20-O-phenyl-desmycosin]: the MIC in assay [9] is 0.25 µg/mL (≈ 0.294 µM); in assay [1] (Staphylococcus aureus, V41) it was 0.5 µg/mL (≈ 0.589 µM); in [10] it was 0.25 µg/mL (≈ 0.294 µM); in [11], 0.25 µg/mL (≈ 0.294 µM); in assay [12], 0.5 µg/mL (≈ 0.589 µM); in assay [13], 0.25 µg/mL (≈ 0.294 µM). In addition, the MIC in assay [2] (Streptococcus pyogenes, C203) was 0.5 µg/mL (≈ 0.589 µM); in assay [3] (Streptococcus pneumoniae, read-out: MIC) it was 1 µg/mL (≈ 1.18 µM); in assay [4], 4 µg/mL (≈ 4.71 µM); in [5] (GROUPD2041, read-out: MIC) it was 8 µg/mL (≈ 9.42 µM); in assay [14], 32 µg/mL (≈ 37.7 µM); in [15] it was 16 µg/mL (≈ 18.8 µM). Besides, the MIC is more than 128 µg/mL in the assay with Escherichia coli EC14; more than 128 µg/mL in assay [16]; more than 128 µg/mL in [17]; 0.39 µg/mL (≈ 0.459 µM) with Staphylococcus aureus; 3.12 µg/mL (≈ 3.67 µM) in the assay on Streptococcus sp. 19F (Streptococcus, SP.19F, read-out: MIC); 25 µg/mL (≈ 29.4 µM) in assay [6] (Pasteurella multocida, 17E, read-out: MIC). In addition, the MIC was determined as 12.5 µg/mL (≈ 14.7 µM) in assay [18]; 6.25 µg/mL (≈ 7.36 µM) in assay [19]; 12.5 µg/mL (≈ 14.7 µM) in assay [20]; 12.5 µg/mL (≈ 14.7 µM) in [21]; 25 µg/mL (≈ 29.4 µM) in assay [22]; 12.5 µg/mL (≈ 14.7 µM) in assay [23]. Moreover, the MIC in [24] was 25 µg/mL (≈ 29.4 µM); in [25], more than 50 µg/mL; in [26], 1.56 µg/mL (≈ 1.84 µM); in assay [27] it was more than 50 µg/mL; in assay [28], more than 50 µg/mL; in [7] (Mesomycoplasma hyopneumoniae, S5972, read-out: MIC) it was 50 µg/mL (≈ 58.9 µM). Also, the ED50 in [8] (Streptococcus pyogenes, C203, oral, read-out: ED50) was 57.4 mg/kg; in assay [8] (Streptococcus pyogenes, C203, sc, subcutaneous, read-out: ED50), more than 10 mg/kg.
